Values joined by “and” are separate entries in the source; they are usually repeats but may differ in a detail not shown here. Equal entries are not always repeated.

T1 sequence (P10635 whole entry): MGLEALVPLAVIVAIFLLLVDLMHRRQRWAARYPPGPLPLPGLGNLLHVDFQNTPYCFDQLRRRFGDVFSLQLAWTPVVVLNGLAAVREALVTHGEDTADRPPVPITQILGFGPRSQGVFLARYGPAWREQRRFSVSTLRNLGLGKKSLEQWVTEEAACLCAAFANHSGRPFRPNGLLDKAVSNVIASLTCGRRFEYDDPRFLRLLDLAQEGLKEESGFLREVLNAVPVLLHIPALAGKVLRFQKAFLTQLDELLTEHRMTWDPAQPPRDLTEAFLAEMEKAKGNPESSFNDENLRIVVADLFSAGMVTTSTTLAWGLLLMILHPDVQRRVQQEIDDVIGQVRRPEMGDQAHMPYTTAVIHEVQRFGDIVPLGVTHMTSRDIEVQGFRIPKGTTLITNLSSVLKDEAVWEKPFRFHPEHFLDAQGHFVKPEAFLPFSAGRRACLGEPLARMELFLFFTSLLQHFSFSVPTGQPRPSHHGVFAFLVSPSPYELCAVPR

The first data set concerns the target T1, CYP2D6 (Homo sapiens, UniProt P10635). Put plainly: In vitro inhibition of CYP2D6, observed Ki (apparent) values from the literature.
Conditions: not given
The source says:
Many SSRI's are known to be inhibitors of cytochrome P450 (CYP), including CYP2D6 mediated metabolic pathways in vivo and in vitro (Belpair et al., Eur. J Clin. Pharmacol., 54: 261-264, 1998; Crewe et al., Br. J. Clin. Pharmacol., 34: 262-265, 1992; Otton et al, Clin. Pharmacol. Ther., 53: 401-409, 1993; Skjelbo et al., Br. J. Clin. Pharmacol., 34: 256-261, 1992; Stevens et al., J. Pharmacol. Exp. Ther., 266: 964-971, 1993). […] As CYP2D6 is of major concern because of its polymorphic nature (Brosen, Ther. Drug Monitoring, 18: 393-396, 1996), the ability to predict whether a drug will interact with this CYP represents a serious advance in the pharmaceutical arts. The potential for CYP2D6 inhibition in vivo can be predicted reliably using systems such as human liver microsomes and recombinant enzymes, along with a know substrate probe for CYP2D6. By generating a K1 (apparent) value and knowledge of the plasma concentration of the drug, it is possible to reliably predict the likelihood of drug-drug interactions in vivo (Ring et al., J. Pharmacol. Exp. Ther., 275: 1131-1135, 1995).
Present technologies have centered around the use of in vitro testing using human liver microsomes or recombinant CYPs and a known catalytic probe for CYP2D6 such as bufuralol. However, the possible volume of in vitro studies is often limited by equipment and materials cost, incubation volume and the rate of analytical determination. […] Generating this in vitro parameter appears to be dependent on the substrate probe used as well as other experimental variables.
For the compound `CN(C)CCCC1(c2ccc(F)cc2)OCc2cc(C#N)ccc21` (stereo not drawn) [Citalopram], the Ki worked out at 10.4 µM.
Still for that read-out and setting: in the case of `CNCCCC1(c2ccc(F)cc2)OCc2cc(C#N)ccc21` (stereo not drawn) [Desmethylcitalopram] it was 3.65 µM; in that of `NCCC(Oc1ccc(C(F)(F)F)cc1)c1ccccc1` (stereo not drawn) [Norfluoxetine], 1.07 µM.
On the same count and under the same terms, in the case of `CN[C@H]1CC[C@@H](c2ccc(Cl)c(Cl)c2)c2ccccc21` [Sertraline] it was 6.52 µM.

Another data set has as its target T1, CYP2D6.
Experiment: not given
Conditions: read-out: Observed K1 (apparent); individual literature values, source per footnote b-l of Table I; cited from earlier work.
Turning to `CN(C)CCCC1(c2ccc(F)cc2)OCc2cc(C#N)ccc21` (stereo not drawn) [Citalopram], the Ki is 5.1 µM and 19 µM and 7 µM.
In the case of `CNCCCC1(c2ccc(F)cc2)OCc2cc(C#N)ccc21` (stereo not drawn) [Desmethylcitalopram], the Ki was 1.3 µM and 6 µM.
For the compound `N[C@H]1CC[C@@H](c2ccc(Cl)c(Cl)c2)c2ccccc21` [Desmethylsertraline], the Ki was 16 µM.

The same data set, now with this note: read-out: observed K1 (apparent); training set of 14 amphetamine compounds, Wu et al., Biochem. Pharmacol. 53: 1605-1612 (1997); cited from earlier work.
As to `CC(N)Cc1ccc(O)cc1` (single isomer, unassigned; (+)) [(+)-4-hydroxyamphetamine], the Ki is 195 µM.
Regarding `CC(N)Cc1ccccc1` (single isomer, unassigned; (+)) [(+)-amphetamine], the Ki is 26.5 µM.
`COc1cc(OC)c(CC(C)N)c(OC)c1` (stereo not drawn) [(d,l)-2,4,6-trimethoxyamphetamine]: the Ki was 33 µM.
Regarding `COc1cc2c(cc1CC(C)N)OCO2` (stereo not drawn) [(d,l)-2-methoxy-4,5-methylenedioxyamphetamine], the Ki is 0.17 µM.
In the case of `COc1ccccc1CC(C)N` (stereo not drawn) [(d,l)-2-methoxyamphetamine], the Ki was 11.5 µM.
As to `COc1cc(CC(C)N)cc(OC)c1OC` (stereo not drawn) [(d,l)-3,4,5-trimethoxyamphetamine], the Ki was 128 µM.
For `CC(N)Cc1ccc2c(c1)OCO2` (stereo not drawn) [(d,l)-3,4-methylenedioxyamphetamine], the Ki was 1.8 µM.
With `CNC(C)Cc1ccc2c(c1)OCO2` (stereo not drawn) [(d,l)-3,4-methylenedioxymethamphetamine], the Ki is 0.6 µM.
For `COc1cc(CC(C)N)cc2c1OCO2` (stereo not drawn) [(d,l)-3-methoxy-4,5-methylenedioxyamphetamine], the Ki is 2.2 µM.
With `COc1cccc(CC(C)N)c1` (stereo not drawn) [(d,l)-3-methoxyamphetamine], the Ki was 17.5 µM.
Turning to `CNC(C)Cc1ccc(O)cc1` (stereo not drawn) [(d,l)-4-hydroxymethamphetamine], the Ki was 60 µM.
Regarding `COc1ccc(CC(C)N)cc1` (stereo not drawn) [(d,l)-4-methoxyamphetamine], the Ki is 24 µM.
Consider `C[C@H](N)C(=O)c1ccccc1` [(d,l)-cathinone], for which the Ki is 340 µM.
As to (+)-methamphetamine, the Ki was 25 µM.

The values are drawn from US20020013372A1, “Pharmacophore models for the identification of the CYP2D6 inhibitory potency of selective serotonin reuptake inhibitors” (priority 2000, published 2002).
